#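 GI50 = concentration required for 50% inhibition of growth. TGI is the concentration that stops growth completely.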
# What was measured:
# Assay in all cases: NCI anticancer screen, dose series, 384-well format
# SF-268 CNS = test system: SF-268 CNS
# EKVX NSCLC = test system: EKVX NSCLC
# T-47D breast = test system: T-47D breast
# HCC-2998 colon = test system: HCC-2998 colon
# NCI/ADR-RES ovarian = test system: NCI/ADR-RES ovarian
# UO-31 renal = test system: UO-31 renal
# BT-549 breast = test system: BT-549 breast
# UACC-62 melanoma = test system: UACC-62 melanoma
# SK-MEL-28 melanoma = test system: SK-MEL-28 melanoma
# OVCAR-5 ovarian = test system: OVCAR-5 ovarian
# SNB-75 CNS = test system: SNB-75 CNS
# OVCAR-3 ovarian = test system: OVCAR-3 ovarian
# HL-60(TB) leukemia = test system: HL-60(TB) leukemia
# HS 578T breast = test system: HS 578T breast
# MDA-MB-468 breast = test system: MDA-MB-468 breast
# MDA-MB-231 breast = test system: MDA-MB-231 breast
# SK-OV-3 ovarian = test system: SK-OV-3 ovarian
# TK-10 renal = test system: TK-10 renal
# PC-3 prostate = test system: PC-3 prostate
# K-562 leukemia = test system: K-562 leukemia
# CCRF-CEM leukemia = test system: CCRF-CEM leukemia
# MCF7 breast = test system: MCF7 breast
# SK-MEL-5 melanoma = test system: SK-MEL-5 melanoma
# DU-145 prostate = test system: DU-145 prostate
# RXF 393 renal = test system: RXF 393 renal
# NCI-H322M lung = test system: NCI-H322M lung
# ACHN renal = test system: ACHN renal
# SNB-19 CNS = test system: SNB-19 CNS
# HOP-62 NSCLC = test system: HOP-62 NSCLC
# COLO 205 colon = test system: COLO 205 colon
# SN12C renal = test system: SN12C renal
# MOLT-4 leukemia = test system: MOLT-4 leukemia
# NCI-H226 lung = test system: NCI-H226 lung
# A549 NSCLC = test system: A549 NSCLC
# NCI-H23 lung = test system: NCI-H23 lung
# RPMI-8226 leukemia = test system: RPMI-8226 leukemia
# OVCAR-4 ovarian = test system: OVCAR-4 ovarian
# HT29 colon = test system: HT29 colon
# NCI-H522 lung = test system: NCI-H522 lung
# HCT-15 colon = test system: HCT-15 colon
# UACC-257 melanoma = test system: UACC-257 melanoma
# MDA-MB-435 melanoma = test system: MDA-MB-435 melanoma
# IGROV1 ovarian = test system: IGROV1 ovarian
# KM12 colon = test system: KM12 colon
# OVCAR-8 ovarian = test system: OVCAR-8 ovarian
# LOX IMVI melanoma = test system: LOX IMVI melanoma
# SF-539 CNS = test system: SF-539 CNS
# SW-620 colon = test system: SW-620 colon
# 786-0 renal = test system: 786-0 renal
# MALME-3M melanoma = test system: MALME-3M melanoma
# HOP-92 NSCLC = test system: HOP-92 NSCLC
# SF-295 CNS = test system: SF-295 CNS
# SR leukemia = test system: SR leukemia
# A498 renal = test system: A498 renal
# CAKI-1 renal = test system: CAKI-1 renal
# M14 melanoma = test system: M14 melanoma
# NCI-H460 NSCLC = test system: NCI-H460 NSCLC
smiles,measurement,setting,value
CCc1cc2ncc(CN3CCN(c4ccc(C(=O)NC)nc4)CC3)cc2[nH]c1=O,GI50,SF-268 CNS,93.1 µM
same,TGI,SF-268 CNS,> 100 µM
same,GI50,EKVX NSCLC,78.6 µM
same,TGI,EKVX NSCLC,> 100 µM
same,GI50,T-47D breast,22 µM
same,TGI,T-47D breast,> 100 µM
same,GI50,HCC-2998 colon,20.2 µM
same,TGI,HCC-2998 colon,> 100 µM
same,GI50,NCI/ADR-RES ovarian,> 100 µM
same,TGI,NCI/ADR-RES ovarian,> 100 µM
same,GI50,UO-31 renal,> 100 µM
same,TGI,UO-31 renal,> 100 µM
same,GI50,BT-549 breast,29.7 µM
same,TGI,BT-549 breast,> 100 µM
same,GI50,UACC-62 melanoma,> 100 µM
same,TGI,UACC-62 melanoma,> 100 µM
same,GI50,SK-MEL-28 melanoma,> 100 µM
same,TGI,SK-MEL-28 melanoma,> 100 µM
same,GI50,OVCAR-5 ovarian,> 100 µM
same,TGI,OVCAR-5 ovarian,> 100 µM
same,GI50,SNB-75 CNS,> 100 µM
same,TGI,SNB-75 CNS,> 100 µM
same,GI50,OVCAR-3 ovarian,43.5 µM
same,TGI,OVCAR-3 ovarian,> 100 µM
same,GI50,HL-60(TB) leukemia,36 µM
same,TGI,HL-60(TB) leukemia,> 100 µM
same,GI50,HS 578T breast,18.9 µM
same,TGI,HS 578T breast,> 100 µM
same,GI50,MDA-MB-468 breast,3.1 µM
same,TGI,MDA-MB-468 breast,20.9 µM
same,GI50,MDA-MB-231 breast,30.5 µM
same,TGI,MDA-MB-231 breast,> 100 µM
same,GI50,SK-OV-3 ovarian,> 100 µM
same,TGI,SK-OV-3 ovarian,> 100 µM
same,GI50,TK-10 renal,> 100 µM
same,TGI,TK-10 renal,> 100 µM
same,GI50,PC-3 prostate,> 100 µM
same,TGI,PC-3 prostate,> 100 µM
same,GI50,K-562 leukemia,74.6 µM
same,TGI,K-562 leukemia,> 100 µM
same,GI50,CCRF-CEM leukemia,29.5 µM
same,TGI,CCRF-CEM leukemia,> 100 µM
same,GI50,MCF7 breast,23.6 µM
same,TGI,MCF7 breast,> 100 µM
same,GI50,SK-MEL-5 melanoma,> 100 µM
same,TGI,SK-MEL-5 melanoma,> 100 µM
same,GI50,DU-145 prostate,> 100 µM
same,TGI,DU-145 prostate,> 100 µM
same,GI50,RXF 393 renal,> 100 µM
same,TGI,RXF 393 renal,> 100 µM
same,GI50,NCI-H322M lung,> 100 µM
same,TGI,NCI-H322M lung,> 100 µM
same,GI50,ACHN renal,70.5 µM
same,TGI,ACHN renal,> 100 µM
same,GI50,SNB-19 CNS,> 100 µM
same,TGI,SNB-19 CNS,> 100 µM
same,GI50,HOP-62 NSCLC,26.1 µM
same,TGI,HOP-62 NSCLC,> 100 µM
same,GI50,COLO 205 colon,68.5 µM
same,TGI,COLO 205 colon,> 100 µM
same,GI50,SN12C renal,84 µM
same,TGI,SN12C renal,> 100 µM
same,GI50,MOLT-4 leukemia,2.3 µM
same,TGI,MOLT-4 leukemia,26.1 µM
same,GI50,NCI-H226 lung,53.1 µM
same,TGI,NCI-H226 lung,> 100 µM
same,GI50,A549 NSCLC,52.6 µM
same,TGI,A549 NSCLC,> 100 µM
same,GI50,NCI-H23 lung,87.2 µM
same,TGI,NCI-H23 lung,> 100 µM
same,GI50,RPMI-8226 leukemia,3.3 µM
same,TGI,RPMI-8226 leukemia,52.4 µM
same,GI50,OVCAR-4 ovarian,53.9 µM
same,TGI,OVCAR-4 ovarian,> 100 µM
same,GI50,HT29 colon,80.1 µM
same,TGI,HT29 colon,> 100 µM
same,GI50,NCI-H522 lung,48.4 µM
same,TGI,NCI-H522 lung,> 100 µM
same,GI50,HCT-15 colon,50 µM
same,TGI,HCT-15 colon,> 100 µM
same,GI50,UACC-257 melanoma,> 100 µM
same,TGI,UACC-257 melanoma,> 100 µM
same,GI50,MDA-MB-435 melanoma,> 100 µM
same,TGI,MDA-MB-435 melanoma,> 100 µM
same,GI50,IGROV1 ovarian,60.1 µM
same,TGI,IGROV1 ovarian,> 100 µM
same,GI50,KM12 colon,> 100 µM
same,TGI,KM12 colon,> 100 µM
same,GI50,OVCAR-8 ovarian,42.1 µM
same,TGI,OVCAR-8 ovarian,> 100 µM
same,GI50,LOX IMVI melanoma,23.9 µM
same,TGI,LOX IMVI melanoma,> 100 µM
same,GI50,SF-539 CNS,> 100 µM
same,TGI,SF-539 CNS,> 100 µM
same,GI50,SW-620 colon,> 100 µM
same,TGI,SW-620 colon,> 100 µM
same,GI50,786-0 renal,72.2 µM
same,TGI,786-0 renal,> 100 µM
same,GI50,MALME-3M melanoma,71.2 µM
same,TGI,MALME-3M melanoma,> 100 µM
same,GI50,HOP-92 NSCLC,25.9 µM
same,TGI,HOP-92 NSCLC,> 100 µM
same,GI50,SF-295 CNS,71 µM
same,TGI,SF-295 CNS,> 100 µM
same,GI50,SR leukemia,0.271 µM
same,TGI,SR leukemia,20.5 µM
same,GI50,A498 renal,> 100 µM
same,TGI,A498 renal,> 100 µM
same,GI50,CAKI-1 renal,34.5 µM
same,TGI,CAKI-1 renal,> 100 µM
same,GI50,M14 melanoma,> 100 µM
same,TGI,M14 melanoma,> 100 µM
same,GI50,NCI-H460 NSCLC,2.5 µM
same,TGI,NCI-H460 NSCLC,> 100 µM
